{
  "source": "patent US9067972B2",
  "about": "“Skin aging-inhibiting peptide” (CALPIS CO., LTD., priority 2008, dated 2015)",
  "note": "Peptide text beside a SMILES is read from it.",
  "data": [
    {"test_system": "Caco-2 cells", "procedure": "Caco-2 cells were obtained from the American Type Culture Collection. Cells with a passage number of 40 to 70 were used for the permeation test. The culture medium comprised Dulbecco's modified Eagle's medium (Sigma) supplemented with fetal bovine serum (10%, AGC TECHNO GLASS CO., LTD.), a non-essential amino acid solution (1%, Gibco), and penicillin-streptomycin (each 200 IU/ml, 200 μg/ml, Gibco). The Caco-2 cells were cultured under humidified conditions at 37° C. and 5% CO2, and subcultured for every 4 to 5 days. For the permeation test, the cells were cultured on a membrane filter in a 12-transwell (Millipore). To a basal side 1.5 ml of the culture medium was added and 0.5 ml of culture medium was added to an apical side, and the cells were cultured for approximately 2 weeks. The enzymatic hydrolysate of the fermented milk was added to the apical side of the cultured Caco-2 cells. Peptides which were permeated to the basal side were collected. For comparison, the same test was performed on a digestive tract enzyme-degraded product of non-fermented reconstituted skimmed milk with a reconstitution ratio of 8.9%.\nThe peptides which were permeated to the basal solution were subjected to solid phase extraction (SepPak tC18, Waters) to thereby concentrate the peptide component and then the peptides were determine by using a high-performance liquid chromatograph tandem mass spectrometer (LCMS-IT-TOF, Shimadzu Corporation). PEAKS (Bioinformatics Solutions Inc) was used to analyze the data. Based on the information obtained from MS/MS, de novo sequencing was performed to determine the amino acid sequence of the permeated peptides. Comparison was made between the detected peptides and peptides contained in a digestive tract enzyme-hydrolyzed product of a milk protein.", "values": [
      {"smiles": "CC(C)[C@H](N)C(=O)N1CCC[C@H]1C(=O)N1CCC[C@H]1C(=O)O", "note": "[Val-Pro-Pro]", "Permeation through Caco-2 monolayer (apical to basal side)": "permeable"},
      {"smiles": "NC(=O)CC[C@H](NC(=O)[C@@H]1CCCN1C(=O)[C@@H]1CCCN1C(=O)[C@@H](N)Cc1ccccc1)C(=O)O", "note": "[Phe-Pro-Pro-Gln] (H-FPPQ-OH; N-terminus and C-terminus assumed)", "Permeation through Caco-2 monolayer (apical to basal side)": "permeable"},
      {"smiles": "CC(C)[C@H](N)C(=O)N1CCC[C@H]1C(=O)N1CCC[C@H]1C(=O)N[C@@H](Cc1ccccc1)C(=O)O", "note": "[Val-Pro-Pro-Phe] (H-VPPF-OH; N-terminus and C-terminus assumed)", "Permeation through Caco-2 monolayer (apical to basal side)": "permeable"},
      {"smiles": "CC[C@H](C)[C@H](N)C(=O)N1CCC[C@H]1C(=O)N1CCC[C@H]1C(=O)O", "note": "[Ile-Pro-Pro]", "Permeation through Caco-2 monolayer (apical to basal side)": "permeable"},
      {"smiles": "CC(C)C[C@H](N)C(=O)N1CCC[C@H]1C(=O)N1CCC[C@H]1C(=O)N[C@H](C(=O)O)[C@@H](C)O", "note": "[Leu-Pro-Pro-Thr] (H-LPPT-OH; N-terminus and C-terminus assumed)", "Permeation through Caco-2 monolayer (apical to basal side)": "permeable"},
      {"smiles": "CC[C@H](C)[C@H](NC(=O)[C@@H](N)CC(N)=O)C(=O)N1CCC[C@H]1C(=O)N1CCC[C@H]1C(=O)N[C@@H](CC(C)C)C(=O)O", "note": "[Asn-Ile-Pro-Pro-Leu] (H-NIPPL-OH; N-terminus and C-terminus assumed)", "Permeation through Caco-2 monolayer (apical to basal side)": "permeable"},
      {"smiles": "CC[C@H](C)[C@H](N)C(=O)N1CCC[C@H]1C(=O)N1CCC[C@H]1C(=O)N[C@@H](CC(C)C)C(=O)O", "note": "[Ile-Pro-Pro-Leu] (H-IPPL-OH; N-terminus and C-terminus assumed)", "Permeation through Caco-2 monolayer (apical to basal side)": "permeable"},
      {"smiles": "CC(C)[C@H](NC(=O)[C@@H]1CCCN1)C(=O)N[C@H](C(=O)N[C@H](C(=O)N1CCC[C@H]1C(=O)N1CCC[C@H]1C(=O)O)C(C)C)C(C)C", "note": "[Pro-Val-Val-Val-Pro-Pro] (H-PVVVPP-OH; N-terminus and C-terminus assumed)", "Permeation through Caco-2 monolayer (apical to basal side)": "permeable"}
    ]}
  ]
}
